The source of these data is a melting point compilation (Tetko et al.; mined from patent text by program, amines drawn as free bases though some values may be those of a salt).

The structures appear in SMILES notation.

Broadly, the melting point is the temperature of the solid-liquid transition. On to `Cn1c(=O)c2ccccc2n(C)c1=S`, for which the melting point stood at 184 °C.

On to `N#CCC1Cn2cccc2C1=O` (configuration not stated), for which the melting point was found to be 68 °C.

`O=C(O)CCCc1cc2nc(Cl)ccc2n1S(=O)(=O)c1ccc2nccnc2c1` came in with a melting point of 103 to 106 °C.

In turn, `CCOC(=O)CCC(=O)c1ccc(CCNS(=O)(=O)c2cccc(C(F)(F)F)c2)cc1` gave a melting point of 83 to 85 °C.

Regarding `O=C(Nc1ccccc1Oc1cc(Cl)cc(Cl)c1)C1CCNCC1`, the melting point was in the range of 138 to 139 °C.

Molecule `CC(=O)Nc1cc(O)cc(C(C)CCCc2ccccc2)c1` (configuration not stated) came in with a melting point of 128 to 130 °C.

As to `COc1cc2cc(C(=O)N3CC(CCl)c4c3cc(N)c3ccccc43)[nH]c2cc1OCCN(C)C` (configuration not stated), the melting point was in the range of 130 to 133 °C.

Molecule `CCOC(=O)c1cc(-c2ccc(Cl)cc2)n(O)c1C(=O)OCC` came in with a melting point of 82 to 84 °C.

Molecule `O=C1C(=CCc2ccccc2)SC(=S)N1N=c1sc2ccccc2s1` gave a melting point of 233 to 234 °C.

As to `O=C(O)Cc1cc2c(s1)-c1ccccc1SC2`, the melting point was in the range of 106 to 110 °C.

With `Nc1ncnc2c1c(-c1ccc(Oc3ccccc3CN3CCCCC3)cc1)cn2C1CCOC1` (configuration not stated), the melting point is 76 to 78 °C.

Molecule `O=C(CCCN1CCC2(CC1)OC(c1ccccc1)c1ccccc12)c1ccc(F)cc1` (configuration not stated) registered a melting point of 137 to 138 °C.

As for `Cc1oc2c(C(O)CO)cccc2c1C` (configuration not stated), the melting point was in the range of 93 to 95 °C.

The molecule `C#CCOc1cc(-c2nc3n(c2Cl)CCCC3)c(F)cc1Cl` registered a melting point of 142 to 145 °C.

Regarding `O=c1[nH]c2cc(Cl)ccc2c(=O)n1S(=O)(=O)c1ccccc1Cl`, the melting point is 275 to 276 °C.

Take `CCN1C(=O)C(C)(C)C(=O)N(C)c2cc(CCCN(CCn3ccc4occc4c3=O)Cc3cccnc3C)ccc21`: the melting point was 151 to 155 °C.

`CCC(C)(C)Nc1c(NCc2ccc(C)c(Cl)c2)c(=O)c1=O` came in with a melting point of 261 to 263 °C.

As for `Nc1nc(NC2CC2c2ccccc2)c2ncn(C3C=CC(CO)C3)c2n1` (configuration not stated), the melting point was in the range of 188 to 190 °C.

The molecule `CCCCOc1ccc(S(=O)(=O)C2(C(=O)NO)CCN(Cc3ccncc3)CC2)cc1` displayed a melting point of 118 °C.

Molecule `O=[N+]([O-])c1ccc(N=Nc2cc(OCCO)c(N(CCCO)CCCO)cc2OCCO)cc1` returned a melting point of 132 to 134 °C.

Regarding `Cc1ccccc1-c1ccc(C(=O)N2Cc3ccc(C(=O)NCCc4ccc(O)cc4)n3Cc3ccccc32)cc1C`, the melting point lay in the range of 129 to 131 °C.

`Cc1ccc(Cn2ccc(OCc3ccccc3)cc2=O)cc1` gave a melting point of 143 °C.

In the case of `Cn1cc(C2=C(c3cn(CCCN)c4ccccc34)C(=O)NC2=O)c2ccccc21`, the melting point is 195 to 197 °C.

Molecule `CC(=O)NCCCC(=O)c1ccc(Cl)cc1CCC(=O)N1CCN(C)CC1` yielded a melting point of 126 to 128 °C.

With `COc1ccc2c(c1O)CC(C(=O)O)N(C(=O)N(C)c1ccccc1)C2` (racemic), the melting point lay within 235 to 255 °C.

For the molecule `CO[C@]1(c2cc(F)cc(Sc3ccc4c(c3)CC/C4=N\O)c2)CCO[C@@H]1C` (racemic), the melting point was 136 to 137 °C.

Turning to `FC(F)(F)c1cc(-c2ccc(Cl)c(Cl)c2)nc2c(-c3nc(Nc4ccccn4)no3)cnn12`, the melting point amounted to 289 °C.

As for `CCOC(=O)c1c(Cn2cnnc2)nc2cc(OC)c(OC)cc2c1-c1ccc(OC)c(OC)c1`, the melting point was 226 to 227 °C.

In turn, `Cc1cc(I)cc(C=O)c1N` came in with a melting point of 134 °C.

For `CCc1nc(/C=C/c2cn(-c3ccccc3)nc2OCc2ccc(OCc3nc(-c4ccc(C(=O)O)s4)oc3C)c(OC)c2)cs1`, the melting point lay within 150 to 151 °C.

For `Oc1ccc(CCNc2ncnc3scnc23)c(F)c1`, the melting point was 193 °C.

`CN(C)C(=O)CNc1ccncc1[N+](=O)[O-]` registered a melting point of 142 to 143 °C.

`CC(C)n1ncnc1COc1nn2c(-c3cc(F)ccc3F)nncc2c1C(C)(C)C`: the melting point was 163 °C.

For `CNc1nc(OC)c(C(=O)O)cc1Br`, the melting point lay in the range of 224 to 225 °C.

The molecule `COc1cc(Br)c(C(=O)c2ccccc2)cc1OC` registered a melting point of 71 to 72 °C.

As for `CSc1ccc(C(=O)Nc2cc(-c3c(-c4ccc(F)c(C)c4)nc4cccnn34)ccn2)cc1`, the melting point is 191 to 192 °C.

In turn, `Cc1cc(N2CCN(Cc3ccc(F)cc3)C2=O)sc1C(=O)NCc1cccnc1` displayed a melting point of 119 to 120 °C.

`CC(C)c1nc(CCl)n(C)c1Sc1cc(Cl)cc(Cl)c1` showed a melting point of 110 to 111 °C.

`CN1Cc2c(F)ncn2-c2ccccc2C1=O` came in with a melting point of 171 to 172 °C.

Turning to `Cc1c(S(=O)(=O)c2ccc(=O)[nH]n2)oc2ccc(Cl)cc12`, the melting point is 247 to 248 °C.

For the molecule `Cc1cccc2c1SC(C(F)(F)F)C(C(=O)O)=C2` (configuration not stated), the melting point lay within 224 to 225 °C.

On to `Clc1ccsc1-c1nc(COc2ccc(CCCn3ccnc3)cc2)co1`, for which the melting point was 69 to 70 °C.

Consider `c1ccc(CN2CCc3[nH]c4ccc(Oc5ccccc5)cc4c3C2)cc1`, for which the melting point came to 102 °C.

`O=C(c1ccccc1)c1cccc(-c2cccc(Cn3cncn3)c2)c1`: the melting point came out at 121 °C.

Regarding `Brc1ccccc1-n1cnc2cnc3ccc(-c4ccccc4)cc3c21`, the melting point was in the range of 128 to 129 °C.

`CC(Nc1cc(Br)ccc1[N+](=O)[O-])C(=O)O` (configuration not stated) showed a melting point of 183 to 187 °C.

Consider `CC(C(=O)c1ccc(Cl)c(Cl)c1)C(O)C(=O)O` (configuration not stated), for which the melting point lay in the range of 103 to 104 °C.

The molecule `NN1CCN(C2c3ccccc3C=C(Br)c3ccccc32)CC1` (configuration not stated) displayed a melting point of 188 to 190 °C.

`CCN(CC)CCNC(=O)c1cccc2c(=O)c(C)c(-c3cccc(C)c3)oc12` displayed a melting point of 79.5 to 86 °C.

With `COC(=O)[C@H](Cc1ccc(NC(=S)NCCc2ccccc2)cc1)NC(=O)[C@@H]1CCCN1S(=O)(=O)c1ccc(C)cc1`, the melting point fell in the range of 76 to 81 °C.

`COc1ccc(-c2[nH]cnc2-c2cc(OC)c(N)c(OC)c2)cc1F` came in with a melting point of 101 to 103 °C.

Regarding `CCCCCCCc1cnc(-c2ccc(CCC(=O)OCC(F)(F)C(F)F)cc2)nc1`, the melting point came out at 42 °C.

`COc1ccc2c(c1)C(C)(N)C(=O)N2c1ccc(F)cc1` (configuration not stated) had a melting point of 163 to 164 °C.

Molecule `CC(C)(C)NCC(O)COc1ccc2c(=O)cc(-c3ccc(OCc4ccccc4)c(OCc4ccccc4)c3)oc2c1` (configuration not stated) returned a melting point of 159 to 161 °C.

The molecule `O=C(N[C@H]1CC[C@H](CCN2CCN(c3nccc4c3OCC4)CC2)CC1)c1ccc(Cl)cc1Cl` returned a melting point of 244 °C.

`N#Cc1ccccc1Sc1ccccc1N`: the melting point lay within 86 to 89 °C.

The molecule `O=C(NCC12CC3CC(CC(C3)C1)C2)c1c(Cl)ccc2nc(N3CCC(C(=O)NO)CC3)ccc12` yielded a melting point of 189 to 196 °C.

The molecule `CC1COC(c2cnc(C3=NC(C)(C(C)C)C(=O)N3)c(C(=O)O)c2)O1` (configuration not stated) had a melting point of 50 to 62 °C.

With `O=C(C=C1CCCN1)c1ccc(Cl)c(Cl)c1`, the melting point fell in the range of 208 to 209 °C.

Molecule `CCOC(=O)Cc1ccc(C(=O)c2ccc(C#N)cc2)n1C` showed a melting point of 117 to 120 °C.

In turn, `COC(=O)Nc1ccc(NC(=O)CN(C)C)c([N+](=O)[O-])c1` showed a melting point of 186 to 189 °C.

Consider `CC(C)(C)OC(=O)N(C(=O)OC(C)(C)C)C(Cc1c[nH]cn1)C(=O)OCc1ccccc1` (configuration not stated), for which the melting point was in the range of 97 to 99.5 °C.
